# Measured values from ChEMBL document CHEMBL4507269, “Data for DCP probe BAY-386” (2021).
# Tests used:
# [1] = target: T1, Adenosine receptor A2b (Homo sapiens) (UniProt P29275); assay: A2B (h) Eurofins-Cerep Cellular and Nuclear Receptor Functional Assays; details: Compound concentration 10.0 uM
# T1 sequence (whole entry): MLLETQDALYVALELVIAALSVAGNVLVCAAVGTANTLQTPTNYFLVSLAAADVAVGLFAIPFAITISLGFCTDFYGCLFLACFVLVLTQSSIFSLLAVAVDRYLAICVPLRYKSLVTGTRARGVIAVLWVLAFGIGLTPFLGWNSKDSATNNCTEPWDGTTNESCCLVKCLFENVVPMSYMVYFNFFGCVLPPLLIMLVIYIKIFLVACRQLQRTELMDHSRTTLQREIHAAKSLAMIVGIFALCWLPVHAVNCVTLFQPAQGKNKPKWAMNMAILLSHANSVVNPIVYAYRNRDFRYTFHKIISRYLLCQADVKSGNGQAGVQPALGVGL
# [2] = target: Hormonally up-regulated neu tumor-associated kinase (Homo sapiens) (UniProt P57058); details: Compound concentration 1000.0 nM
# [3] = target: Membrane-associated tyrosine- and threonine-specific cdc2-inhibitory kinase (Homo sapiens) (UniProt Q99640); details: Compound concentration 1000.0 nM
# [4] = target: Histamine H1 receptor (Homo sapiens) (UniProt P35367); details: Compound concentration 10.0 uM
# [5] = target: Serine/threonine-protein kinase 4 (Homo sapiens) (UniProt Q13043); details: Compound concentration 1000.0 nM
# [6] = target: Interleukin-1 receptor-associated kinase 4 (Homo sapiens) (UniProt Q9NWZ3); details: Compound concentration 1000.0 nM
# [7] = system: Epidermal growth factor receptor (Homo sapiens), P00533 [UNDEFINED MUTATION]; details: Compound concentration 1000.0 nM
# [8] = target: T2, Muscarinic acetylcholine receptor M1 (Homo sapiens) (UniProt P11229); assay: M1 (h) Eurofins-Cerep Cellular and Nuclear Receptor Functional Assays; details: Compound concentration 10.0 uM
# T2 sequence (whole entry): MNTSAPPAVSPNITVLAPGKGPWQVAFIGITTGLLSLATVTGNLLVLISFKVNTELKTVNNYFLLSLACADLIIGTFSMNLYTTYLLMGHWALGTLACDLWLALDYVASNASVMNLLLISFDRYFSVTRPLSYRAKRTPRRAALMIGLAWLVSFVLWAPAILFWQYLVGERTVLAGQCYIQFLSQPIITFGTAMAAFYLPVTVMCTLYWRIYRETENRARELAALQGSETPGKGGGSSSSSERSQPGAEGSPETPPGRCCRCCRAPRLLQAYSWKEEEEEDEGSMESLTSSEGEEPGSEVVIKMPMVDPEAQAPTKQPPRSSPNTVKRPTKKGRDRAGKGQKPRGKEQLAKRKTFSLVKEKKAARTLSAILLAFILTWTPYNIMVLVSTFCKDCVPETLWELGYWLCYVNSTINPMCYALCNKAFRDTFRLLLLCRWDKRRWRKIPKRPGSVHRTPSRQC
# [9] = target: Casein kinase I isoform alpha-like (Homo sapiens) (UniProt Q8N752); details: Compound concentration 1000.0 nM
# [10] = target: Calcium/calmodulin-dependent protein kinase type II subunit gamma (Homo sapiens) (UniProt Q13555); details: Compound concentration 1000.0 nM
# [11] = target: Calcium/calmodulin-dependent protein kinase type 1G (Homo sapiens) (UniProt Q96NX5); details: Compound concentration 1000.0 nM
# [12] = target: 5-hydroxytryptamine receptor 6 (Homo sapiens) (UniProt P50406); assay: 5-HT6 (h) Eurofins-Cerep Cellular and Nuclear Receptor Functional Assays; details: Compound concentration 10.0 uM
# [13] = target: Tyrosine-protein kinase ABL1 (Homo sapiens) (UniProt P00519); details: Compound concentration 1000.0 nM
# [14] = target: Epithelial discoidin domain-containing receptor 1 (Homo sapiens) (UniProt Q08345); details: Compound concentration 1000.0 nM
# [15] = target: 5-hydroxytryptamine receptor 7 (Homo sapiens) (UniProt P34969); details: Compound concentration 10.0 uM
# [16] = target: Mitogen-activated protein kinase 3 (Homo sapiens) (UniProt P27361); details: Compound concentration 1000.0 nM
# [17] = system: Epidermal growth factor receptor (Homo sapiens), P00533 [T790M]; details: Compound concentration 1000.0 nM
# [18] = target: Discoidin domain-containing receptor 2 (Homo sapiens) (UniProt Q16832); details: Compound concentration 1000.0 nM
# [19] = target: Cyclin-dependent kinase 4 (Homo sapiens) (UniProt P11802); details: Compound concentration 1000.0 nM
# [20] = target: Serine/threonine-protein kinase Nek10 (Homo sapiens) (UniProt Q6ZWH5); details: Compound concentration 1000.0 nM
# [21] = target: Ribosomal protein S6 kinase alpha-6 (Homo sapiens) (UniProt Q9UK32); details: Compound concentration 1000.0 nM
# [22] = target: Tyrosine-protein kinase JAK1 (Homo sapiens) (UniProt P23458); details: Compound concentration 1000.0 nM
# [23] = target: Phosphatidylinositol 4-kinase beta (Homo sapiens) (UniProt Q9UBF8); details: Compound concentration 1000.0 nM
# [24] = target: Serine/threonine-protein kinase Nek3 (Homo sapiens) (UniProt P51956); details: Compound concentration 1000.0 nM
# [25] = target: Casein kinase I isoform delta (Homo sapiens) (UniProt P48730); details: Compound concentration 1000.0 nM
# [26] = target: Proto-oncogene tyrosine-protein kinase Src (Homo sapiens) (UniProt P12931); details: Compound concentration 1000.0 nM
# [27] = target: Serine/threonine-protein kinase LATS2 (Homo sapiens) (UniProt Q9NRM7); details: Compound concentration 1000.0 nM
# [28] = target: TGF-beta receptor type-1 (Homo sapiens) (UniProt P36897); details: Compound concentration 1000.0 nM
# Sequence of 5-hydroxytryptamine receptor 6 (Homo sapiens) (P50406 whole entry): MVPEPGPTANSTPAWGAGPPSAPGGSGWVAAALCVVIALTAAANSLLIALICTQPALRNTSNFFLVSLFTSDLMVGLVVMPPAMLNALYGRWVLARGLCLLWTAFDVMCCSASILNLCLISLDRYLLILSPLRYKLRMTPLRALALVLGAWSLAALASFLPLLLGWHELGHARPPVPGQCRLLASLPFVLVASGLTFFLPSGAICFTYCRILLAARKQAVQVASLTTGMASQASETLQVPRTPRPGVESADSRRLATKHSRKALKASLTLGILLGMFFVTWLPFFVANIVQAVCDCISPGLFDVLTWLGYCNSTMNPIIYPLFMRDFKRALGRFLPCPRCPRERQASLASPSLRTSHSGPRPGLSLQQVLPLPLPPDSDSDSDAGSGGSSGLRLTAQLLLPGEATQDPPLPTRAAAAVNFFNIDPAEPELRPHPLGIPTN
# Sequence of Tyrosine-protein kinase JAK1 (Homo sapiens) (P23458 whole entry): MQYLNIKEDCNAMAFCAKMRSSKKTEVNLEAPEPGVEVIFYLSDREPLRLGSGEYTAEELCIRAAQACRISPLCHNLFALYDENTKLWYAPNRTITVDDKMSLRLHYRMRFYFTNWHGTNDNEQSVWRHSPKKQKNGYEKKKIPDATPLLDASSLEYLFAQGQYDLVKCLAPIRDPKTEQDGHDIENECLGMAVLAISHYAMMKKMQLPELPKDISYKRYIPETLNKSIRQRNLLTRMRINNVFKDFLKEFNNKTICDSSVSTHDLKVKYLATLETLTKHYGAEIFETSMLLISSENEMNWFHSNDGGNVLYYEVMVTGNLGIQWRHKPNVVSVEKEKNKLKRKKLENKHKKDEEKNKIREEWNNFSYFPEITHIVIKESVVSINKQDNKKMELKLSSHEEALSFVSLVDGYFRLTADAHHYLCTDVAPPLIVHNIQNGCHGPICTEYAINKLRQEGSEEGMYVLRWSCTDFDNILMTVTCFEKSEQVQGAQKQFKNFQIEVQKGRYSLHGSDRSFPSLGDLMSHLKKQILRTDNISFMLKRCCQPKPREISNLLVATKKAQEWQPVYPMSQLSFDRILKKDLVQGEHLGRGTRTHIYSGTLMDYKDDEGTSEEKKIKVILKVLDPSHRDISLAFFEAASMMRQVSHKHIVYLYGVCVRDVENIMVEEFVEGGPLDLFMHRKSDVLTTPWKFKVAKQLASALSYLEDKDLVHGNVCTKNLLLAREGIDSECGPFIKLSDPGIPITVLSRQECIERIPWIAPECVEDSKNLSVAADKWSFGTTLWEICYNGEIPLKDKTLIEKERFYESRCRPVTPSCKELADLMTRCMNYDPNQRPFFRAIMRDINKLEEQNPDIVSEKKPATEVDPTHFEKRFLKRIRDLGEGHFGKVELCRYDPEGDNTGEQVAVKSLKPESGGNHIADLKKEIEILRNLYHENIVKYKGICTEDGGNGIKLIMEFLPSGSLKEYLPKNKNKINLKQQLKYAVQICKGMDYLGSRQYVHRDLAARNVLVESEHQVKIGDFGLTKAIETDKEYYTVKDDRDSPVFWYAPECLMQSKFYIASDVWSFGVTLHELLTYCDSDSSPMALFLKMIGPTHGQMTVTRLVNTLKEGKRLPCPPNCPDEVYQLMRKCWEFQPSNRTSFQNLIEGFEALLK
# Sequence of Casein kinase I isoform delta (Homo sapiens) (P48730 whole entry, looked up, canonical isoform): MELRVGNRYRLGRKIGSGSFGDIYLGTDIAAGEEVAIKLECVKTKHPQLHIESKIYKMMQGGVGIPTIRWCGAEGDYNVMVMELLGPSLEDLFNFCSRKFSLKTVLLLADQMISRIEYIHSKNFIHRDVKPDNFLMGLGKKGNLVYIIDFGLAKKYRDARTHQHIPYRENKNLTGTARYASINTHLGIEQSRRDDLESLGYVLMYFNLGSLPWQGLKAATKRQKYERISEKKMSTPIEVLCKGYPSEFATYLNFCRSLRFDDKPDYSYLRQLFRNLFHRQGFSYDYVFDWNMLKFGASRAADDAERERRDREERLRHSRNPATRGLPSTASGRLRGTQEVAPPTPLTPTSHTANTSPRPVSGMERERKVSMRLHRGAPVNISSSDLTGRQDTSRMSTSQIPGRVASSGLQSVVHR
# Sequence of Ribosomal protein S6 kinase alpha-6 (Homo sapiens) (Q9UK32 whole entry): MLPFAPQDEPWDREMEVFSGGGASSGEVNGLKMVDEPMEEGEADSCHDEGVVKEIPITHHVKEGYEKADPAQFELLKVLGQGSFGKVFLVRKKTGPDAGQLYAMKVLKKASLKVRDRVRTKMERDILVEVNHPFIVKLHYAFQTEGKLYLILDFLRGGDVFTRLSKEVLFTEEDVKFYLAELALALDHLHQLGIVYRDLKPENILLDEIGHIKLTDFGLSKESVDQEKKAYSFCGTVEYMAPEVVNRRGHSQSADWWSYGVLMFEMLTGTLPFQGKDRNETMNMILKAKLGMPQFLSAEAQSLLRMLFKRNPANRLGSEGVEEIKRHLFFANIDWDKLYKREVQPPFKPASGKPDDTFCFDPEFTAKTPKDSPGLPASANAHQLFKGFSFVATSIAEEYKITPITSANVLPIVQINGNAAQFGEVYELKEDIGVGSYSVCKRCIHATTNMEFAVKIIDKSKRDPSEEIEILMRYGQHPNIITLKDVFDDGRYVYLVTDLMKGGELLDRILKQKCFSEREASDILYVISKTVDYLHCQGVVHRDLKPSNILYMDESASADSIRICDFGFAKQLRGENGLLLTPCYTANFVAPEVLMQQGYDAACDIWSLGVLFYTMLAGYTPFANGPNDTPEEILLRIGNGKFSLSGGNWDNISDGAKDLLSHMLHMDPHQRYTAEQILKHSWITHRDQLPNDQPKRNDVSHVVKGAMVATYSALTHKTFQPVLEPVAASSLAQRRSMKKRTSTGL
# Sequence of Cyclin-dependent kinase 4 (Homo sapiens) (P11802 whole entry): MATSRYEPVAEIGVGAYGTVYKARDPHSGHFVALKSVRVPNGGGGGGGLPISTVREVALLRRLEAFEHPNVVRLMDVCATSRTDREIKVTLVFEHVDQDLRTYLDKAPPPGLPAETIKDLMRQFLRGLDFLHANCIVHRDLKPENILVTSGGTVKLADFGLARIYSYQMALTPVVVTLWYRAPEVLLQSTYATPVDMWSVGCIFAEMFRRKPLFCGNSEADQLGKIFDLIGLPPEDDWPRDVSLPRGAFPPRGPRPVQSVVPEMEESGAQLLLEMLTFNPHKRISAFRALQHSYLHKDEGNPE
# Sequence of Tyrosine-protein kinase ABL1 (Homo sapiens) (P00519 whole entry, the tested form may be a part): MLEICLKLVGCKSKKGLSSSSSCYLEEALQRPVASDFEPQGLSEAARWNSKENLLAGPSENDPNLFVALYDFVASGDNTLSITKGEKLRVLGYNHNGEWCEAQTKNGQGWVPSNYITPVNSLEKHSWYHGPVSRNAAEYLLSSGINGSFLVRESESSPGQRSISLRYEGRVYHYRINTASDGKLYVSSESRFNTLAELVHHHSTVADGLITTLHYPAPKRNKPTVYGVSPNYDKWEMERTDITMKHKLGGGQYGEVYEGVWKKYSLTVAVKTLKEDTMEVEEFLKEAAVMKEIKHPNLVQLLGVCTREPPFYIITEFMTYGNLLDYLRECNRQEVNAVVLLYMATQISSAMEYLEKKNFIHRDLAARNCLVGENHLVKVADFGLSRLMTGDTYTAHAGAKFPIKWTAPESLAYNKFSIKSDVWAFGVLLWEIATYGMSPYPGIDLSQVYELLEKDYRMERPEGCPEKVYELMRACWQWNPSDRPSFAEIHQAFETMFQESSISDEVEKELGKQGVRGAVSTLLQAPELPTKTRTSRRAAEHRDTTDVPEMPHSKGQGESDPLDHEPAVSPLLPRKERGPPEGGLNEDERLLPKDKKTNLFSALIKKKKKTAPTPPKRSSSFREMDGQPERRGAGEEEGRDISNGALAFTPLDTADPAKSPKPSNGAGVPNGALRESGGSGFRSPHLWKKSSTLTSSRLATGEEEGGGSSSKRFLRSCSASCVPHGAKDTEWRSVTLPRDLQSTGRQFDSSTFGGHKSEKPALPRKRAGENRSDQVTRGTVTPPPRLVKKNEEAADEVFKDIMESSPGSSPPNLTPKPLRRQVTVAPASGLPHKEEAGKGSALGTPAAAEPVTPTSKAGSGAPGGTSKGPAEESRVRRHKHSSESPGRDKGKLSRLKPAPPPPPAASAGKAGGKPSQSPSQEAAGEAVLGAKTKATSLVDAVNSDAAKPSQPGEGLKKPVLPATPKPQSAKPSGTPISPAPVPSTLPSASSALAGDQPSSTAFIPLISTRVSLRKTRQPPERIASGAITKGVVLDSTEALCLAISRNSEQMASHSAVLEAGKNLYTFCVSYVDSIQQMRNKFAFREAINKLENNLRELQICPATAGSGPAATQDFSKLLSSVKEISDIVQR
# Sequence of Membrane-associated tyrosine- and threonine-specific cdc2-inhibitory kinase (Homo sapiens) (Q99640 whole entry): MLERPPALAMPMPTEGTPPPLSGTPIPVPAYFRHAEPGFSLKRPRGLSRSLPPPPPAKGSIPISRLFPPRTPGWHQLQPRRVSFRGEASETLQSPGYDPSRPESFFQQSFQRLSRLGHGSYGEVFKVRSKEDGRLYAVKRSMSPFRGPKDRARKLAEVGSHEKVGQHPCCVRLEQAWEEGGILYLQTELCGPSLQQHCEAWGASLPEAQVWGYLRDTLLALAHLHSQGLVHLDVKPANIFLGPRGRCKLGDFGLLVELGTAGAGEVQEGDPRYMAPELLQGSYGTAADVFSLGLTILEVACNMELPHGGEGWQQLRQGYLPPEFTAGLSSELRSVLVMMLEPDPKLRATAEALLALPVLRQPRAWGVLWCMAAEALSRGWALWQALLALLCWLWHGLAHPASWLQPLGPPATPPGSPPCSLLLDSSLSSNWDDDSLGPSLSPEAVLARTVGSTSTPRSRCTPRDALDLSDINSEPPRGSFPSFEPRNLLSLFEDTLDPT
# Sequence of Casein kinase I isoform alpha-like (Homo sapiens) (Q8N752 whole entry, canonical isoform): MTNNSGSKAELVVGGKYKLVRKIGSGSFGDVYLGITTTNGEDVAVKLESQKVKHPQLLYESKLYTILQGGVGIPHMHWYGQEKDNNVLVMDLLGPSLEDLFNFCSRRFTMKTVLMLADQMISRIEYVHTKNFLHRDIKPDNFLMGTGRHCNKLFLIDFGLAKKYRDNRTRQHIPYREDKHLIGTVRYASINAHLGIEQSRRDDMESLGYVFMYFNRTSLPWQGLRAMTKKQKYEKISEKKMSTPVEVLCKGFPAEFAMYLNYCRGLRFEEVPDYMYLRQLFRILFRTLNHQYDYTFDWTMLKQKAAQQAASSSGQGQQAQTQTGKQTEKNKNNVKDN
Compound,% Inhibition of Control Agonist Response (Mean n=2) [1],% of Control Agonist Response (Mean n=2) [1],residual activity [2],residual activity [3],inhibition [4],residual activity [5],residual activity [6],residual activity [7],% Inhibition of Control Agonist Response (Mean n=2) [8],% of Control Agonist Response (Mean n=2) [8],residual activity [9],residual activity [10],residual activity [11],% Inhibition of Control Agonist Response (Mean n=2) [12],% of Control Agonist Response (Mean n=2) [12],residual activity [13],residual activity [14],inhibition [15],residual activity [16],residual activity [17],other results
O=C(N1CCS(=O)(=O)CC1)N1C[C@H](c2ccc(OC(F)(F)F)cc2)C[C@H](c2nc(C3CC3)no2)C1 [BAY-386],-0.3%,3.5%,100%,100%,-5.32%,100%,80%,92%,57%,12.8%,100%,100%,100%,21.1%,2.8%,84%,100%,-0.77%,94%,100%,residual activity [18]: 100%; residual activity [19]: 18%; residual activity [20]: 81%; residual activity [21]: 76%; residual activity [22]: 88%; residual activity [23]: 100%; residual activity [24]: 100%; residual activity [25]: 100%; residual activity [26]: 97%; residual activity [27]: 100%; residual activity [28]: 100%
Cc1noc([C@H]2C[C@@H](c3ccc(C(F)(F)F)cc3)CN(C(=O)N3CCS(=O)(=O)C3)C2)n1 [BAY-448],-8.5%,1.5%,100%,100%,11.5%,100%,83%,67%,10.2%,1.2%,100%,100%,100%,2.1%,1.4%,71%,100%,21.8%,100%,77%,residual activity [18]: 74%; residual activity [19]: 100%; residual activity [20]: 84%; residual activity [21]: 98%; residual activity [22]: 98%; residual activity [23]: 93%; residual activity [24]: 73%; residual activity [25]: 100%; residual activity [26]: 96%; residual activity [27]: 100%; residual activity [28]: 100%
